From PMC2967674 (Bioorganic & medicinal chemistry, 2009)
Read-outs that look alike come from different tables or passages of the source.

Columns and labels:
SXc^− [1] = molecular target: T1, SXc^− (Homo sapiens, UniProt Q9UPY5); assay type: cell-based; conditions: SNB-19 cells, Na-free; for substrate-induced efflux of L-Glu (substrate activity): 500 μM; for attenuation of L-Cys2-induced efflux of L-Glu: added together with L-cystine
T1 sequence (Q9UPY5 1-501): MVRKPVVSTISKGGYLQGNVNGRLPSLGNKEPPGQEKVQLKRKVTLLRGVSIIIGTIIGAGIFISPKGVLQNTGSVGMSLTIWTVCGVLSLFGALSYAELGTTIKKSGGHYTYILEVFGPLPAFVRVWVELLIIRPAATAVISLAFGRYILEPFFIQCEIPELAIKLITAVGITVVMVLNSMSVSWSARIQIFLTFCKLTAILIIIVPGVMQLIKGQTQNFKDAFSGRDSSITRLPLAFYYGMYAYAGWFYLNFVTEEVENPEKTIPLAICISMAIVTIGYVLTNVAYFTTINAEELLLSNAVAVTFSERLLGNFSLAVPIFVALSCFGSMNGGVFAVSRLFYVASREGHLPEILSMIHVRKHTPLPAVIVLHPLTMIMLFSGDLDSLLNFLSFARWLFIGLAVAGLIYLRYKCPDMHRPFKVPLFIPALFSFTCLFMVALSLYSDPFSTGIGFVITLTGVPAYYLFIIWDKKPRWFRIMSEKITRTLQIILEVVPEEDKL
T1 sequence (P08195 1-529 partner): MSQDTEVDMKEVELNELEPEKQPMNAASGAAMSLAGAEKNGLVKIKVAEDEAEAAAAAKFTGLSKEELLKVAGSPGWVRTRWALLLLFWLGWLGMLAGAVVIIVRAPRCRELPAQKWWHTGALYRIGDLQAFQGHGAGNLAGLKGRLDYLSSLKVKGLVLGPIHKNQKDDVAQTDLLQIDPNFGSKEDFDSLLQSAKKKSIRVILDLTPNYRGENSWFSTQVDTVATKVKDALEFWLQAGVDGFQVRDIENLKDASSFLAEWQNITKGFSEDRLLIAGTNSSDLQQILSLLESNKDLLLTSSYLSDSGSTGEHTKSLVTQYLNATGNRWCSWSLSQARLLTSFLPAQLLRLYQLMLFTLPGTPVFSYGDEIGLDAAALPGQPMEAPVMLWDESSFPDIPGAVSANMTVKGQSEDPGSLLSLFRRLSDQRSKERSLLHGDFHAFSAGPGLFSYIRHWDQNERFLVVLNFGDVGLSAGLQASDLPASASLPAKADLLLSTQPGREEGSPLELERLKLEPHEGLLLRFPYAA

[2] = molecular target: T2, System xc^− transporter (SXc^−) (Homo sapiens, UniProt Q9UPY5); assay type: cell-based; conditions: SNB-19 cells; for inhibitory activity at SXc^− (in words): initial screen at a single concentration (250 μM or 500 μM)
T2 sequence (Q9UPY5 1-501): T1 sequence (Q9UPY5 1-501)
T2 sequence (P08195 1-529 partner): T1 sequence (P08195 1-529 partner)

AMPA receptor = conditions: brain slice; cited from earlier work
[3] = Conversion of open hydrazone to closed isoxazolo[3,4-d]pyridazinone in solution; assay type: physicochemical; conditions: on standing in solution, 11a to 13a
GluR2 = conditions: S1S2 construct filter assay; Gouaux, personal communication; cited from earlier work
SXc^− [4] = conditions: read-out: Ki at SXc^−; cited from earlier work
SXc^− [5] = conditions: cited from earlier work

With L-cystine [reference compound] the “substrate-induced efflux of L-Glu (substrate activity)” value (SXc^− [1]) was “produced a significant efflux of L-glutamate over baseline”.

In the case of `N[C@@H](Cc1c(C(=O)O)noc1CCc1cccc2ccccc12)C(=O)O` [Compound 7f], the “inhibitory activity at SXc^− (in words)” value [2] is given as “markedly inhibit” and the “displacement of radiolabeled AMPA” value (AMPA receptor) is given as “essentially no ability to displace radiolabeled AMPA”.

In the case of `C/C(=N\Nc1ccc([N+](=O)[O-])cc1[N+](=O)[O-])c1c(C(=O)O)noc1COCc1ccc2ccccc2c1` [Compound 17, 4-{1-[(2,4-Dinitro-phenyl)-hydrazono]-ethyl}-5-(naphthalen-2-ylmethoxymethyl)-isoxazole-3-carboxylic acid], the “inhibitory activity at SXc^− (in words)” value [2] is reported as “virtually devoid of activity”.

For `C/C(=N\Nc1ccccc1)c1c(C(=O)O)noc1C` [Compound 11a, 5-Methyl-4-[1-(phenyl-hydrazono)-ethyl]-isoxazole-3-carboxylic acid], the “time for the open form to convert to the closed [3,4-d] form in solution” value [3] was “a matter of a few hours”.

For `Cc1onc(O)c1C[C@H](N)C(=O)O` [Compound 6, aminomethyl isoxazole propionic acid, reference compound], the “inhibitory activity at SXc^− (in words)” value [2] was “no discernable activity”.

In the case of `N[C@@H](Cc1c(C(=O)O)noc1COCc1ccccc1)C(=O)O` [Compound 7e, 4-[(2R,S)-2-amino-2-carboxyethyl]-5-[benzyloxymethyl]isoxazole-3-carboxylic acid], the “inhibitory activity at SXc^− (in words)” value [2] is reported as “markedly inhibit”.

For `C/C(=N\NC(N)=O)c1c(C(=O)O)noc1C` [Compound 9b], the GluR2 binding (GluR2) is given as “no detectable GluR2 binding”.

For `N[C@@H](Cn1oc(=O)[nH]c1=O)C(=O)O` [QA, quisqualate], the Ki (SXc^− [4]) is listed as roughly 5 µM and the “rate of exchange with L-Glu relative to L-Cys2” value (SXc^− [5]) is listed as 35%.

In the case of `C/C(=N\Nc1ccc([N+](=O)[O-])cc1[N+](=O)[O-])c1c(C(=O)O)noc1C` [Compound 11d, 4-{1-[(2,4-Dinitro-phenyl)-hydrazono]-ethyl}-5-methyl-isoxazole-3-carboxylic acid], the GluR2 binding (GluR2) is given as “no detectable GluR2 binding”.

With `Cc1onc(C(=O)O)c1C[C@H](N)C(=O)O` [Compound 7, amino-3-carboxy-5-methylisoxazole propionic acid, reference compound] the “inhibitory activity at SXc^− (in words)” value [2] was “no discernable activity”.

For `N[C@@H](Cc1c(C(=O)O)noc1CCc1ccccc1)C(=O)O` [Compound 7d], the “inhibitory activity at SXc^− (in words)” value [2] is given as “markedly inhibit” and the “displacement of radiolabeled AMPA” value (AMPA receptor) is given as “essentially no ability to displace radiolabeled AMPA”.

In the case of `N[C@@H](Cc1c(C(=O)O)noc1CCc1ccc2ccccc2c1)C(=O)O` [Compound 7g], the “substrate-induced efflux of L-Glu (substrate activity)” value (SXc^− [1]) is reported as “did not induce an efflux of L-Glu over background levels”, the “attenuation of L-Cys2-induced efflux of L-Glu” value (SXc^− [1]) is reported as “did attenuate the ability of L-Cys2 to exchange with intracellular L-Glu” and the “attenuation of L-Cys2-induced efflux of L-Glu” value (SXc^− [1]; listed as S-2-naphthyl-ACPA) is reported as “attenuate L-cystine-induced efflux”. For the same molecule, the “inhibitory activity at SXc^− (in words)” value [2] was “markedly inhibit” and the “displacement of radiolabeled AMPA” value (AMPA receptor) was “essentially no ability to displace radiolabeled AMPA”.

For `C/C(=N\NC(=O)Nc1ccccc1)c1c(C(=O)O)noc1C` [Compound 9c], the “inhibitory activity at SXc^− (in words)” value [2] is listed as “moderate amount of inhibitory activity” and the GluR2 binding (GluR2) is listed as “no detectable GluR2 binding”.

For `N[C@H](C(=O)O)c1ccc(C(=O)O)cc1` [Compound 4-S-CPG, 4-S-carboxy-phenylglycine], the Ki (SXc^− [4]) is listed as roughly 5 µM and the “substrate activity at SXc^− (in words)” value (SXc^− [5]) is listed as “essentially a non-substrate inhibitor”.

With “4-{1-[(3,5-Bis-trifluoromethyl-phenyl)-hydrazono]-ethyl}-5-(2-naphthalen-2-yl-ethyl)-isoxazole-3-carboxylic acid [Compound 11e]” the “inhibition of SXc^−-mediated L-Glu uptake” value ([2]; compound 500 μM (100 minus % of control of Table 2)) was 86% and the “inhibitory activity at SXc^− (in words)” value [2] was “moderate amount of inhibitory activity”.
